For one test, the system named is MKN-45. In words: cell viability / antiproliferative activity (WST-8), MKN-45 cells. It counts as cell-based. The following applies: Homo sapiens; MKN-45 gastric cancer cells; 72 hours.
Test [1] has as its system c-MET. In words: c-MET protein degradation (Simple Western), MKN-45 cells. The following applies: MKN-45 gastric cancer cells, c-MET overexpressing; 24 hours. The test is classed as cell-based, human. The procedure:
(§1) In order to assess the resolution of the compound of the present invention for c-MET expressed in cells, cells were dispensed in a 12-well plate at a concentration of 2×10^5 cells/well, and then gastric cancer cell lines were treated with samples for 24 hours and lung cancer cell lines were treated for 48 hours. Cell lysates were collected using a scraper on ice, centrifuged at 4° C. 15,000 rpm for 30 min to obtain a protein-containing supernatant. Protein expression was then measured using the Simple Western Automated Western Blot System Abby instrument using 3 μg of protein for each sample. SDS and heat-induced denaturation proteins were separated by molecular weight, attached to capillary, reacted with anti-c-MET or anti-GAPDH antibodies, which are primary antibodies, and then reacted with HRP-conjugated secondary antibodies, and analyzed the protein expression signal with compass software. Protein expression was normalized based on the expression value of GAPDH, and protein development in each sample was measured as a percentage (%) based on 100% of samples treated with 0.1% DMSO carriers, and DC50 (concentration of a compound where 50% protein inhibition is achieved) was calculated from the change in protein expression amount due to compound treatment.

The subject of test [2] is c-MET. Description: c-MET protein degradation (Simple Western), SNU-638 cells. Conditions: SNU-638 gastric cancer cells, c-MET overexpressing; 24 hours. It counts as cell-based, human. The method, then: as §1
The test system of test [3] is c-MET. Description: c-MET protein degradation (Simple Western), EBC-1 cells. It counts as cell-based, human. The following applies: EBC-1 lung cancer cells, c-MET overexpressing; 48 hours. The procedure:
as §1

pIC50: −log10 of the molar value.

Usually pIC50 stands for −log10 of the IC50, conventionally taken in molar units. High values mean a small IC50, low ones a large IC50. One may read the DC50 as the midpoint of the concentration-degradation curve. Take `Cn1cc(-c2cnc3c(nnn3C[C@@H]3CN(c4ncc(-c5ccc(CN6CCN(C(=O)COCCOCCNc7ccc8c(=O)n(C9CCC(=O)NC9=O)ncc8c7)CC6)cc5)cn4)CCO3)n2)cn1` (some centres unmarked) [ICT-0000935]: the pIC50 in the test on MKN-45 was 6.00 to 7.00. Further, the DC50 in the test with c-MET [1] was in the range of 100 to 1000 nM.
On to `N#Cc1cccc(C2=NC(Cc3cccc(-c4ncc(OCC5CCN(CC(=O)N6CCN(CC7CCN(c8ccc9c(=O)n(C%10C=CC(=O)NC%10=O)ncc9c8)CC7)CC6)CC5)cn4)c3)C(=O)C=C2)c1` (centres unmarked) [ICT-0000975], for which, in the test on MKN-45, the negative-log IC50 (pIC50) is > 7.00. In the test with c-MET [1], this molecule returned a DC50 of 100 to 1000 nM.
`Cc1nn(C2CCC(=O)NC2=O)c(=O)c2c(NCC(=O)N3CCC(CN4CCC(COc5cnc(-c6cccc(Cn7nc(-c8cccc(C#N)c8)ccc7=O)c6)nc5)CC4)CC3)cccc12` (centres unmarked) [ICT-0000980]: the DC50 in the test with c-MET [2] is > 1000 nM; in the test on c-MET [1] it was < 100 nM.
For the molecule `Cc1nn(C2CCC(=O)NC2=O)c(=O)c2ccc(N3CCN(C(=O)C4CCN(CC(=O)N5CCC(COc6cnc(-c7cccc(Cn8nc(-c9cccc(C#N)c9)ccc8=O)c7)nc6)CC5)CC4)CC3)cc12` (centres unmarked) [ICT-0001218], the half-maximal degradation concentration (DC50) in the test with c-MET [2] and with c-MET [1] was < 100 nM in each case.
Turning to `Cc1nn(C2CCC(=O)NC2=O)c(=O)c2cc(N3CCN(CC4CCN(C(=O)CN5CCC(COc6cnc(-c7cccc(Cn8nc(-c9cccc(C#N)c9)ccc8=O)c7)nc6)CC5)CC4)CC3)c(F)cc12` (centres unmarked) [ICT-0001231, 3-(1-(3-(5-((1-(2-(4-(4-(4-(3-(2,6-dioxopiperidine-3-yl)-7-fluoro-1-methyl-4-oxo-3,4-dihydrophthalazine-6-yl)piperazine-1-il)methyl)piperidine-1-il)-2-oxoethyl)piperidine-4-yl)methoxy)pyrimidine-2-yl)benzyl)6-oxo-1,6-dihydropyridazine-3-yl)benzonitrile], the negative-log IC50 (pIC50) with MKN-45 was > 7.00.
Turning to `N#Cc1cccc(-c2ccc(=O)n(Cc3cccc(-c4ncc(OCC5CCN(CC(=O)N6CC(N7CCN(c8ccc9c(=O)n(C%10CCC(=O)NC%10=O)ncc9c8)CC7)C6)CC5)cn4)c3)n2)c1` (centres unmarked) [ICT-0001232], the half-maximal degradation concentration (DC50) in the test on c-MET [2], with c-MET [1] and with c-MET [3] was < 100 nM throughout.
`Cc1nn(C2CCC(=O)NC2=O)c(=O)c2ccc(N3CCN(C4CCN(CC(=O)N5CCC(COc6cnc(-c7cccc(Cn8nc(-c9cccc(C#N)c9)ccc8=O)c7)nc6)CC5)CC4)CC3)cc12` (centres unmarked) [ICT-0001255]: in the test with c-MET [1], the DC50 was < 100 nM.
Take `Cc1nn(C2CCC(=O)NC2=O)c(=O)c2ccc(N3CCN(CC4CCN(CC(=O)N5CCC(COc6cnc(-c7cccc(Cn8nc(-c9cccc(C#N)c9)ccc8=O)c7)nc6)CC5)CC4)CC3)cc12` (centres unmarked) [ICT-0001256]: the DC50 in the test with c-MET [1] is < 100 nM.
Turning to `Cc1nn(C2CCC(=O)NC2=O)c(=O)c2ccc(N3CCN(C(=O)C4CN(CC(=O)N5CCC(COc6cnc(-c7cccc(Cn8nc(-c9cccc(C#N)c9)ccc8=O)c7)nc6)CC5)C4)CC3)cc12` (centres unmarked) [ICT-0001257], the half-maximal degradation concentration (DC50) with c-MET [1] is < 100 nM; in the test with c-MET [3], 100 to 1000 nM.
As for `Cc1nn(C2CCC(=O)NC2=O)c(=O)c2ccc(N3CCN(C[C@@H]4CN(C(=O)CN5CCC(COc6cnc(-c7cccc(Cn8nc(-c9cccc(C#N)c9)ccc8=O)c7)nc6)CC5)CCO4)CC3)cc12` (some centres unmarked) [ICT-0001258], in the test on c-MET [1], the 50% degradation concentration (DC50) is < 100 nM.
The same measure, in the same setting: then `Cc1nn(C2CCC(=O)NC2=O)c(=O)c2cc(N3CCN(c4ccc(NCC(=O)N5CCC(COc6cnc(-c7cccc(Cn8nc(-c9cccc(C#N)c9)ccc8=O)c7)nc6)CC5)cc4)CC3)ccc12` (centres unmarked) [ICT-0001262, 3-(1-(3-(5-((1-((4-(4-(3-(2,6-dioxopiperidin-3-yl)-1-methyl-4-oxo-3,4-dihydropthalazine-6-yl)piperazine-1-yl)phenyl)glycy)piperidine-4-il)methoxy)pyrimidine-2-yl)benzyl)6-oxo-1,6-dihydropyridazine-3-yl)benzonitrile], with < 100 nM; and `Cc1nn(C2CCC(=O)NC2=O)c(=O)c2cc(N3CCC(N4CCN(CC(=O)N5CCC(COc6cnc(-c7cccc(Cn8nc(-c9cccc(C#N)c9)ccc8=O)c7)nc6)CC5)CC4)CC3)ccc12` (centres unmarked) [ICT-0001270], with < 100 nM.
With `N#Cc1cccc(-c2ccc(=O)n(Cc3cccc(-c4ncc(OCC5CCN(CCN6CCN(c7ccc8c(=O)n(C9CCC(=O)NC9=O)ncc8c7)CC6)CC5)cn4)c3)n2)c1` (centres unmarked) [ICT-0001276, 3-(1-{[3-(5-{[1-(2-{4-[2-(2,6-dioxopiperidin-3-yl)-1-oxo-1,2-dihydropetalazine-6-yl]piperazine-1-il}ethyl)piperidine-4-il]methoxy}pyrimidine-2-yl)phenyl]methyl}-6-oxo-1,6-dihydropyridazine-3-yl)benzonitrile], the DC50 in the test on c-MET [1] is < 100 nM; in the test with c-MET [3] it was > 1000 nM.
`Cc1nn(C2CCC(=O)NC2=O)c(=O)c2cc(N3CCN(CCN4CCC(COc5cnc(-c6cccc(Cn7nc(-c8cccc(C#N)c8)ccc7=O)c6)nc5)CC4)CC3)ccc12` (centres unmarked) [ICT-0001278, 3-(1-{[3-(5-{[1-(2-{4-[3-(2,6-dioxopiperidin-3-yl)-1-methyl-4-oxo-3,4-dihydropthalazine-6-yl]piperazine-1-yl}ethyl)piperidine-4-day]methoxy}pyrimidine-2-yl)phenyl]methyl}6-oxo-1,6-dihydropyridazine-3-yl)benzonitrile]: the half-maximal degradation concentration (DC50) in the test on c-MET [1] is 100 to 1000 nM; in the test with c-MET [3] it was > 1000 nM.
Turning to `Cc1nn(C2CCC(=O)NC2=O)c(=O)c2ccc(N3CCN(C4CN(CCN5CCC(COc6cnc(-c7cccc(Cn8nc(-c9cccc(C#N)c9)ccc8=O)c7)nc6)CC5)C4)CC3)cc12` (centres unmarked) [ICT-0001325], the half-maximal degradation concentration (DC50) in the test on c-MET [2] is > 1000 nM.
Consider `Cc1nn(C2CCC(=O)NC2=O)c(=O)c2cc(N3CCN(CC4CCN(CCN5CCC(COc6cnc(-c7cccc(Cn8nc(-c9cccc(C#N)c9)ccc8=O)c7)nc6)CC5)CC4)CC3)c(F)cc12` (centres unmarked) [ICT-0001326], for which the DC50 with c-MET [2] was > 1000 nM.
In the case of `N#Cc1cccc(-c2ccc(=O)n(Cc3cccc(-c4ncc(OCC5CCN(c6ccc(NC7CCC(=O)NC7=O)cc6F)CC5)cn4)c3)n2)c1` (centres unmarked) [ICT-0001383], the DC50 with c-MET [2] and with c-MET [3] was < 100 nM in each case.
As to `N#Cc1cccc(-c2ccc(=O)n(Cc3cccc(-c4ncc(OCC5CCN(CCN6CCN(c7ccc(NC8CCC(=O)NC8=O)cc7F)CC6)CC5)cn4)c3)n2)c1` (centres unmarked) [ICT-0001433, 3-(1-(3-(5-((1-(1-(2-(4-((2,6-dioxopiperidine-3-yl)amino)-2-fluorophenyl)piperazine-1-il)ethyl)piperidine-4-il)methoxy)pyrimidine-2-yl)benzyl)6-oxo-1,6-dihydropyridazine-3-yl)benzonitrile], the DC50 with c-MET [2] and with c-MET [3] was < 100 nM in each case.
Turning to `N#Cc1cccc(-c2ccc(=O)n(Cc3cccc(-c4ncc(-c5cccc(CN6CCN(c7ccc(NC8CCC(=O)NC8=O)cc7F)CC6)c5)cn4)c3)n2)c1` (centres unmarked) [ICT-0001434], the DC50 with c-MET [2] is > 1000 nM; in the test on c-MET [3], < 100 nM.
Take `Cn1cc(-c2cnc3c(nnn3C[C@@H]3CN(c4ncc(-c5ccc(CN6CCN(CC(=O)N7CCN(c8ccc(NC9CCC(=O)NC9=O)cc8F)CC7)CC6)cc5)cn4)CCO3)n2)cn1` (some centres unmarked) [ICT-0001439]: the half-maximal degradation concentration (DC50) with c-MET [2] and in the test with c-MET [3] was < 100 nM each time.
As for `N#Cc1cccc(-c2ccc(=O)n(Cc3cccc(-c4ncc(OCC5CCN(CC(=O)N6CCC(CN7CCN(c8ccc(NC9CCC(=O)NC9=O)cc8F)CC7)CC6)CC5)cn4)c3)n2)c1` (centres unmarked) [ICT-0001447, 3-(1-{[3-(5-{[1-(2-{4-[(4-{4-[(2,6-dioxopiperidin-3-yl)amino]-2-fluorophenyl}piperazine-1-yl)methyl]piperidine-1-yl}-2-oxoethyl)piperidine-4-yl]methoxy}pyrimidine-2-yl)phenyl]methyl}-6-oxo-1,6-dihydropyridazine-3-yl)benzonitrile], the 50% degradation concentration (DC50) in the test with c-MET [3] is < 100 nM.
On to `N#Cc1cccc(-c2ccc(=O)n(Cc3cccc(-c4ncc(-c5cccc(CN6CCN(c7ccc(C8CCC(=O)NC8=O)cn7)CC6)c5)cn4)c3)n2)c1` (centres unmarked) [ICT-0001449], for which the DC50 is > 1000 nM in the test with c-MET [2] and < 100 nM with c-MET [3].
As to `N#Cc1cccc(-c2ccc(=O)n(Cc3cccc(-c4ncc(-c5cccc(CN6CCC(CN7CCN(c8ccc(NC9CCC(=O)NC9=O)cc8F)CC7)CC6)c5)cn4)c3)n2)c1` (centres unmarked) [ICT-0001450], the DC50 was 100 to 1000 nM with c-MET [2] and < 100 nM in the test with c-MET [3].
With `N#Cc1cccc(-c2ccc(=O)n(Cc3cccc(-c4ncc(OCC5CCN(CC(=O)N6CCN(CC7CCN(c8ccc(NC9CCC(=O)NC9=O)cc8F)CC7)CC6)CC5)cn4)c3)n2)c1` (centres unmarked) [ICT-0001468, 3-(1-{[3-(5-{[1-(2-{4-[(1-{4-[(2,6-dioxopiperidin-3-yl)amino]-2-fluorophenyl}piperidine-4-yl)methyl]piperazine-1-yl}-2-oxoethyl)piperidine-4-yl]methoxy}pyrimidine-2-yl)phenyl]methyl}-6-oxo-1,6-dihydropyridazine-3-yl)benzonitrile], in the test on c-MET [3], the 50% degradation concentration (DC50) was < 100 nM.
`N#Cc1cccc(-c2ccc(=O)n(Cc3cccc(-c4ncc(OCC5CCN(C(=O)CN6CCN(c7ccc(NC8CCC(=O)NC8=O)cc7F)CC6)CC5)cn4)c3)n2)c1` (centres unmarked) [ICT-0001494]: the DC50 with c-MET [2] and with c-MET [3] was < 100 nM throughout.

(Values after patent US20260306639A1, “DEGRADER FOR DECOMPOSING CMET PROTEIN, AND PHARMACEUTICAL COMPOSITION COMPRISING SAME” (INNOCURE THERAPEUTICS, INC., priority 2022, published 2026).)
